How the values were obtained:
Assay type in all cases: binding, Pseudomonas aeruginosa PAO1
[1] = molecular target: T1, PA2652-LBD (Pseudomonas aeruginosa, UniProt Q9I0I6); details: DSF screening as described in text; 2 °C threshold for significant hits
T1 construct: The DNA fragment encoding the LBD of PA2652 (Lys^34–Thr^205) was amplified; His-tag (vector-encoded by pET28b(+) via NdeI site); made in house; host or cells: Escherichia coli BL21 (DE3)
Description: To identify ligands that may bind to the LBD of PA2652, we conducted Differential Scanning Fluorimetry (DSF) based high throughput ligand screening assays as described previously[37],[38]. DSF analyses permit the determination of melting temperature (Tm) values, which corresponds to the temperature at which half the protein is in its native conformation whereas the remaining half has undergone thermal unfolding. Since ligand binding typically enhances the thermal stability of proteins, increases in the Tm in the presence of ligands may be indicative of specific binding. We screened 450 different compounds available in five different ligand arrays from Biolog (Supplementary Fig. S3). The screened collection included different carbon and nitrogen sources, phosphorous and sulfurous compounds as well as different nutrient supplements.
Thermal shift assays were performed on a MyIQ2 Real-Time PCR instrument (BioRad). Ligands from the different compound arrays (Biolog, Hayward, CA, USA; see Supplementary Fig. S3) were dissolved in 50 μl of MilliQ water, which, according to the manufacturer, corresponds to a concentration of 10–20 mM. Screening was performed using 96 wells plates. Each well contained 20 μM of protein dialyzed into TNG buffer (20 mM Tris/HCl, 150 mM NaCl, 10% (v/v) glycerol, pH 6.7), 2.5 μl of the resuspended compounds and SYPRO Orange (Life Technologies) at 5× concentration. In a single well (ligand free protein) the compound was substituted by water. Samples were heated from 23 °C to 85 °C at a scan rate of 1 °C/min. The protein unfolding curves were obtained by following the changes in SYPRO Orange fluorescence. Melting temperatures were determined using the first derivative values from the raw fluorescence data.

[2] = molecular target: T1, PA2652-LBD; assay: biochemical
Procedure: To unambiguously determine ligand binding, we conducted Isothermal Titration Calorimetry (ITC)[40] binding studies with the purified protein.
(§1) Experiments were conducted on a VP-microcalorimeter (Microcal, Amherst, MA, USA) at 20 °C. PA2652-LBD was dialyzed overnight against TNG buffer, adjusted to a concentration of 20–35 μM and placed into the sample cell of the instrument. The protein was titrated by the injection of 9.6–14.4 μl aliquots of 1–20 mM ligand solutions that were prepared in TNG buffer (20 mM Tris/HCl, 150 mM NaCl, 10% (v/v) glycerol, pH 6.8) immediately before use. The mean enthalpies measured from the injection of ligands into buffer were subtracted from raw titration data prior to data analysis with the MicroCal version of ORIGIN. Data were fitted with the “One binding site model”.

[3] = molecular target: T1, PA2652-LBD; assay: ITC titration with L-malic acid in absence and presence of antagonists (competition)
Description: In order to understand the mechanistic role of these antagonistics in the chemotaxis behaviour of P. aeruginosa, we first carried out ITC binding studies. In these assays, we measured the affinity of L-malic acid for PA2652-LBD in the presence of different concentrations of citraconic and D,L-methylsuccinic acids. […] Considering the close structural similarity of antagonists and L-malic acid (Fig. 3) it is likely that these compounds compete for binding at the same site at PA2652.
Figure 7 Attractants and antagonists compete for binding at PA2652-LBD in vitro. Isothermal titration calorimetry analysis of the binding of L-malic acid to PA2652-LBD in the absence and presence of 2 or 20 mM of the antagonists, citraconic and D,L-methylsuccinic acids. Upper panel: Titration raw data for the injection of 9.6 μl aliquots of 1 mM of L-malic acid into 20 μM of protein in the absence and presence of antagonists (present both in the injector syringe and sample cell). Lower panel: Integrated, dilution heat corrected and concentration normalized peak areas fitted with the “One binding site” model of ORIGIN. The apparent binding constants are listed in Supplementary Table S2.
as §1

[4] = L-malic acid titration in presence of 2 mM D,L-methylsuccinic acid
[5] = L-malic acid titration in presence of 2 mM citraconic acid
[6] = L-malic acid titration in presence of 20 mM D,L-methylsuccinic acid
[7] = L-malic acid titration in presence of 20 mM citraconic acid
[8] = L-malic acid titration, no antagonist

T1 sequence (Q9I0I6 34-205): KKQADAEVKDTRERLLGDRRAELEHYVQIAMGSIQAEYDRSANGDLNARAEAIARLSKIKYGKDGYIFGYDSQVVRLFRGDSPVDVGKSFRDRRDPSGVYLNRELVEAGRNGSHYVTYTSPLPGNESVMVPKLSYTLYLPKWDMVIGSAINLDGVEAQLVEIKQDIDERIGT

Question: What does the source list for `O=C(O)C[C@H](O)C(=O)O` [L-malic acid]?
Answer: Tm increases [1]: more than 2 °C; Kd [2]: 23 ± 1 µM; TΔS (entropy change of binding) ([2]; ITC): 2.1 ± 1 kcal/mol; Binding in ITC ([2]; YES/NO): YES; Kd [3]: 23 ± 1 µM; n (apparent) [3, 4]: 0.6 ± 0.1; ∆H (apparent) [3, 4]: -6.7 ± 1 kcal/mol; n (apparent) [3, 5]: 0.9 ± 0.2; ∆H (apparent) [3, 5]: -5.1 ± 1 kcal/mol; n (apparent) [3, 6]: 1.1 ± 0.9; ∆H (apparent) [3, 6]: -2.6 ± 2 kcal/mol; n (apparent) [3, 7]: 1.1 ± 1; ∆H (apparent) [3, 7]: -3.3 ± 5 kcal/mol; n (apparent) [3, 8]: 1 ± 0.1; ∆H (apparent) [3, 8]: -4.1 ± 0.6 kcal/mol; Change of apparent affinity of L-malic acid ([3]; antagonists increased to 20 mM): further reduction in the apparent affinity; Change of apparent affinity of L-malic acid ([3]; in the presence of 2 mM antagonists (citraconic or D,L-methylsuccinic acid)): decreased approximately by a factor of two

Source: paper PMC5795001, “The activity of the C4-dicarboxylic acid chemoreceptor of Pseudomonas aeruginosa is controlled by chemoattractants and antagonists” (Scientific Reports, 2018)
